System: Immortalized human bronchial epithelial (HBE) cells
Assay type: cell-based
Details: HBE cells with S1 peptide; EVs, drugs alone or combined

| SMILES | reduction in inflammation (TNFα expression) |
| --- | --- |
| CN(C)C(=N)N=C(N)N [metformin] | modest reduction in inflammation |
| C=C(C)[C@@H]1CCC(C)=C[C@H]1c1c(O)cc(CCCCC)cc1O [CBD, cannabidiol] | modest reduction in inflammation |

— US20230105667A1, “MESENCHYMAL STROMAL CELLS AND EXTRACELLULAR VESICLES FOR TREATING VIRAL INFECTIONS, INFLAMMATION, AND TISSUE FIBROSIS” (EXOSTEM BIOTEC LTD., priority 2020, published 2023)
